Measured values as given in the supplement of paper PMC10307832.

Experiments:
Assay in all cases: relative viability (nuclei count vs DMSO), 5 days (fraction); higher = more cells survive
[1] = compound: CN(NC(=O)CC(=O)NN(C)C(=S)c1ccccc1)C(=S)c1ccccc1 [Elesclomol] + CS(=O)(=O)N1CCN(Cc2cc3nc(-c4cccc5[nH]ncc45)nc(N4CCOCC4)c3s2)CC1 [Pictilisib] (partner 1 µM)
Summary of the method: (§1)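 The day after seeding in 1536-well plates, lung cancer cell lines were treated by pin tool with a single drug, or with a fixed anchor-drug dose together with five library-drug doses (not always all listed) in √10 steps. After 5 days, a combined fix-and-stain solution (final 0.05% Triton X-100, 1% formaldehyde, 1 ug/ml Hoechst) was added. Nuclei counted on 4× images gave relative viability as treated counts over vehicle counts, reported as the median of duplicate plates.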

[2] = compound: CN(NC(=O)CC(=O)NN(C)C(=S)c1ccccc1)C(=S)c1ccccc1 [Elesclomol] + CCNC(=O)c1noc(-c2cc(C(C)C)c(O)cc2O)c1-c1ccc(CN2CCOCC2)cc1 [Luminespib] (partner 0.01 µM)
Summary of the method: as §1

[3] = compound: CN(NC(=O)CC(=O)NN(C)C(=S)c1ccccc1)C(=S)c1ccccc1 [Elesclomol] + CS(=O)(=O)CCNCc1ccc(-c2ccc3ncnc(Nc4ccc(OCc5cccc(F)c5)c(Cl)c4)c3c2)o1 [Lapatinib] (partner 2 µM)
Summary of the method: as §1

[4] = compound: CN(NC(=O)CC(=O)NN(C)C(=S)c1ccccc1)C(=S)c1ccccc1 [Elesclomol] + CC(=O)Nc1cccc(-n2c(=O)n(C3CC3)c(=O)c3c(Nc4ccc(I)cc4F)n(C)c(=O)c(C)c32)c1 [Trametinib] (partner 0.02 µM)
Summary of the method: as §1

[5] = compound: CN(NC(=O)CC(=O)NN(C)C(=S)c1ccccc1)C(=S)c1ccccc1 [Elesclomol] + CC(=O)c1c(C)c2cnc(Nc3ccc(N4CCNCC4)cn3)nc2n(C2CCCC2)c1=O [Palbociclib] (partner 0.5 µM)
Summary of the method: as §1

Row | Cell Line | relative viability ([1]; first compound 0.003162 µM) | relative viability ([1]; first compound 0.01 µM) | relative viability ([1]; first compound 0.03162 µM) | relative viability ([1]; first compound 0.1 µM) | relative viability ([2]; first compound 0.003162 µM) | relative viability ([2]; first compound 0.01 µM) | relative viability ([2]; first compound 0.03162 µM) | relative viability ([2]; first compound 0.1 µM) | relative viability ([3]; first compound 0.003162 µM) | relative viability ([3]; first compound 0.01 µM) | relative viability ([3]; first compound 0.03162 µM) | relative viability ([3]; first compound 0.1 µM) | relative viability ([4]; first compound 0.003162 µM) | relative viability ([4]; first compound 0.03162 µM) | relative viability ([4]; first compound 0.1 µM) | relative viability ([5]; first compound 0.003162 µM) | relative viability ([5]; first compound 0.01 µM) | relative viability ([5]; first compound 0.03162 µM) | relative viability ([5]; first compound 0.1 µM) | relative viability ([4]; first compound 0.01 µM)
1 | NCI-H1792 | 0.262 | 0.171 | 0.3 | 0.357 | 0.385 | 0.354 | 0.431 | 0.329 | 0.867 | 0.841 | 0.807 | 0.932 | 0.367 | 0.366 | 0.267 | 0.544 | 0.569 | 0.607 | 0.662 | –
2 | NCI-H1793 | 0.273 | 0.307 | 0.335 | 0.178 | 0.13 | 0.148 | 0.158 | 0.133 | 0.657 | 0.613 | 0.651 | 0.112 | 0.339 | 0.318 | 0.111 | 0.3 | 0.297 | 0.247 | 0.123 | 0.414
3 | NCI-H1915 | 0.924 | – | 0.916 | 0.821 | 0.771 | – | 0.768 | 0.331 | 0.986 | – | 0.948 | 0.78 | 0.301 | 0.305 | 0.118 | 0.517 | 0.381 | 0.489 | 0.206 | 0.242
4 | NCI-H1944 | 0.381 | 0.29 | 0.318 | 0.328 | 0.73 | 0.682 | 0.654 | 0.371 | 0.829 | 0.714 | 0.846 | 0.688 | 0.48 | 0.352 | 0.266 | 0.328 | 0.328 | 0.347 | 0.227 | 0.456
5 | NCI-H1975 | 0.306 | 0.179 | 0.2 | 0.123 | 0.126 | 0.133 | 0.133 | 0.115 | 0.84 | 0.571 | 0.164 | 0.1 | 0.356 | 0.14 | 0.125 | 0.579 | 0.263 | 0.205 | 0.0984 | 0.229
6 | NCI-H1993 | 0.798 | 0.909 | 0.807 | 0.603 | 0.764 | 0.595 | 0.466 | 0.429 | 0.753 | 0.809 | 0.697 | 0.563 | 0.544 | 0.495 | 0.339 | 0.712 | 0.564 | 0.456 | 0.433 | 0.576
7 | NCI-H2009 | 0.797 | 0.225 | 0.122 | 0.0966 | 0.977 | 0.494 | 0.167 | 0.116 | 0.841 | 0.178 | 0.136 | 0.107 | 0.283 | 0.15 | 0.0957 | 0.224 | 0.172 | 0.116 | 0.0798 | 0.259
8 | NCI-H2023 | 0.219 | 0.148 | 0.0682 | 0.0514 | 0.658 | 0.376 | 0.134 | 0.0435 | 0.384 | 0.266 | 0.0556 | 0.0486 | 0.469 | 0.0579 | 0.045 | 0.355 | 0.124 | 0.0385 | 0.0417 | 0.149
9 | NCI-H2085 | 0.419 | 0.444 | 0.433 | 0.322 | 0.421 | 0.393 | 0.321 | 0.248 | 0.761 | 0.521 | 0.397 | 0.376 | 0.608 | 0.207 | 0.174 | 0.459 | 0.423 | 0.333 | 0.255 | 0.434
10 | NCI-H2087 | 0.879 | 0.559 | 0.491 | 0.495 | 0.158 | 0.189 | 0.139 | 0.0928 | 0.895 | 0.519 | 0.58 | 0.569 | 0.204 | 0.153 | 0.0863 | 0.222 | 0.188 | 0.176 | 0.0806 | 0.149
11 | NCI-H2126 | 0.501 | 0.462 | 0.494 | 0.495 | 0.883 | 0.801 | 0.338 | 0.325 | 0.731 | 0.698 | 0.791 | 0.766 | 0.554 | 0.497 | 0.557 | 0.341 | 0.357 | 0.352 | 0.309 | 0.555
12 | NCI-H2170 | 0.328 | 0.266 | 0.298 | 0.193 | 0.735 | 0.624 | 0.646 | 0.435 | 0.273 | 0.285 | 0.259 | 0.257 | 0.949 | 0.898 | 0.607 | 0.396 | 0.358 | 0.358 | 0.29 | 0.95
13 | NCI-H2228 | 0.395 | 0.352 | 0.132 | 0.0486 | 0.163 | 0.152 | 0.123 | 0.0703 | 0.953 | 0.66 | 0.33 | 0.103 | 0.573 | 0.177 | 0.0514 | 0.676 | 0.513 | 0.225 | 0.0449 | 0.228
14 | NCI-H2347 | 0.543 | 0.689 | 0.629 | 0.396 | 0.318 | 0.557 | 0.282 | 0.25 | 0.876 | 0.776 | 0.902 | 0.761 | 0.341 | 0.33 | 0.256 | 0.401 | 0.441 | 0.328 | 0.321 | 0.264
15 | NCI-H2405 | 0.472 | 0.249 | 0.228 | 0.236 | 0.684 | 0.554 | 0.265 | 0.299 | 1.16 | 0.292 | 0.291 | 0.289 | 0.687 | 0.295 | 0.272 | 0.507 | 0.395 | 0.303 | 0.28 | 0.468
16 | NCI-H3122 | 0.567 | 0.594 | 0.594 | 0.304 | 0.083 | 0.113 | 0.0663 | 0.0832 | 0.999 | 0.989 | 0.978 | 0.434 | 0.23 | 0.216 | 0.0967 | 0.161 | 0.205 | 0.167 | 0.105 | 0.21
